As usually defined, the IC50 is the point on the concentration scale where inhibition reaches its midpoint.

The first experiment deals with T1, CDK5-p25 kinase (Homo sapiens, UniProt Q00535).
T1 construct: purchased Invitrogen PV4677
T1 sequence (Q00535 whole entry): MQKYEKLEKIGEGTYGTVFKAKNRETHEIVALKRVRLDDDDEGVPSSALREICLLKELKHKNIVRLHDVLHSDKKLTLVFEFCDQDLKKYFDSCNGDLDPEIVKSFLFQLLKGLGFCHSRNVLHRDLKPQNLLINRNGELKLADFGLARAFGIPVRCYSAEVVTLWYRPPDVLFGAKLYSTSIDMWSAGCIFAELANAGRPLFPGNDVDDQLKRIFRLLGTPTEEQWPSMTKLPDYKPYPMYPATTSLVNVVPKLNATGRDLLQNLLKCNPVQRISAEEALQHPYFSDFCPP
T1 sequence (Q15078 99-307 partner limits assumed): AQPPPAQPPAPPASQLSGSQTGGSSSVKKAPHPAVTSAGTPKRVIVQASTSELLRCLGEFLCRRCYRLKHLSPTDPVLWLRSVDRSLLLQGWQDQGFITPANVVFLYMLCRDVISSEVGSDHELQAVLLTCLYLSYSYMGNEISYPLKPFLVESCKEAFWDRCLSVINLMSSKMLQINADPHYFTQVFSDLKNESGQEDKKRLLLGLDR
Put plainly: CDK5-p25 kinase enzymatic assay. Format: biochemical. The following applies: 0.3 nM CDK5-p25, 1.5 uM peptide, 5 uM ATP; X marks bin 50 nM-99 nM; read-out: IC50 potency, 50 nM-99 nM. The protocol: CDK5-p25 kinase (Invitrogen PV4677) enzymatic activity was measured using electrophoretic separation and fluorescent detection to monitor phosphorylation of a fluorescently labeled histone H1-derived peptide substrate, FL29 (5-FAM-GGGPATPKKAKKL-CONH2, Caliper #760429)
First, 0.25 uL of serially diluted compound in DMSO at 100× concentration was transferred into each well of a 384-well polystyrene assay plate. To this was added 15 uL of a 1.67× enzyme solution (500 pM enzyme, 1 mM DTT (Sigma D9779), 1× reconstitution buffer with protease inhibitor (Caliper #700329 proprietary formulation)), followed by centrifugation for 1 min at 1000 rpm, and incubation for 5-15 min at room temperature to allow binding of compound to enzyme. To initiate the reaction, 10 uL of substrate/ATP mix (245 mM Hepes pH 7.5, 0.003% Brij 35, 0.004% Tween, 12.75 uM ATP, 3.75 uM FL29 peptide) were added to each well, followed by centrifugation at 1000 rpm for 1 min. The reaction was then incubated at room temperature for 30 min. Final assay conditions were: 0.3 nM CDK5-p25, 1.5 uM peptide, 5 uM ATP, 0.6 mM DTT, 1% DMSO, 98 mM HEPES pH 7.5.
After incubation, reactions were quenched by the addition of 45 uL Caliper termination solution (Caliper proprietary formula), followed by centrifugation at 1000 rpm for 1 min. Extent of reaction (percentage conversion of substrate to phosphorylated product) was then measured using the Caliper EZ II reader. Dose-response curves were created by plotting the inhibition of enzyme activity (normalized relative to vehicle treated and no ATP control reactions) as a function of the log of compound concentration. The curve was analyzed using a four parameter logistical fit to calculate IC50 values.
For `CC(C)(C)c1ccc(Cc2cc(=O)c3c(C4CCC4)[nH]nc3[nH]2)cc1` [Example 4, 6-(4-tert-butylbenzyl)-3-cyclobutyl-2,7-dihydro-4H-pyrazolo[3,4-b]pyridin-4-one], the IC50 lay in the range of 50 to 99 nM.
Regarding `O=c1cc(Cc2ccc(-c3ccccc3)cc2)[nH]c2n[nH]c(C3CCC3)c12` [Example 3, 6-(biphenyl-4-ylmethyl)-3-cyclobutyl-2,7-dihydro-4H-pyrazolo[3,4-b]pyridin-4-one], the IC50 lay within 50 to 99 nM.

Staying with this experiment, now noted: 0.3 nM CDK5-p25, 1.5 uM peptide, 5 uM ATP; X marks bin 100 nM-499 nM; read-out: IC50 potency, 100 nM-499 nM.
As to `O=c1cc(Cc2c(F)cccc2Cl)[nH]c2n[nH]c(C3CCC3)c12` [Example 2, 6-(2-chloro-6-fluorobenzyl)-3-cyclobutyl-2,7-dihydro-4H-pyrazolo[3,4-b]pyridin-4-one], the IC50 is 100 to 499 nM.
The same measure, in the same setting: under `O=c1cc(CC2CCCCC2)[nH]c2n[nH]c(C3CCC3)c12` [Example 7, 3-cyclobutyl-6-(cyclohexylmethyl)-2,7-dihydro-4H-pyrazolo[3,4-b]pyridin-4-one] stands 100 to 499 nM.
On the same count and under the same terms, under `O=c1cc(Cc2ccccc2-c2ccccc2)[nH]c2n[nH]c(C3CCC3)c12` [Example 5, 6-(biphenyl-2-ylmethyl)-3-cyclobutyl-2,7-dihydro-4H-pyrazolo[3,4-b]pyridin-4-one] stands 100 to 499 nM.

Staying with this experiment, now noted: 0.3 nM CDK5-p25, 1.5 uM peptide, 5 uM ATP; X marks bin 500 nM-3 μM; read-out: IC50 potency, 500 nM-3 μM.
Regarding `O=c1cc(Cc2ccc3ccccc3c2)[nH]c2n[nH]c(C3CC(F)(F)C3)c12` [Example 9, 3-(3,3-difluorocyclobutyl)-6-(naphthalen-2-ylmethyl)-2,7-dihydro-4H-pyrazolo[3,4-b]pyridin-4-one], the IC50 lay within 500 to 3000 nM.
In the case of `O=c1cc(Cc2ccc3ccccc3c2)[nH]c2n[nH]c([C@H]3C[C@@H](O)C3)c12` [Example 11, 3-(cis-3-hydroxycyclobutyl)-6-(naphthalen-2-ylmethyl)-2,7-dihydro-4H-pyrazolo[3,4-b]pyridin-4-one], the IC50 fell in the range of 500 to 3000 nM.

Staying with this experiment, now noted: 0.3 nM CDK5-p25, 1.5 uM peptide, 5 uM ATP; X marks bin <50 nM; read-out: IC50 potency, <50 nM.
For `O=c1cc(Cc2ccc(Cl)c(Cl)c2)[nH]c2n[nH]c(C3CCC3)c12` [Example 6, 3-cyclobutyl-6-(3,4-dichlorobenzyl)-2,7-dihydro-4H-pyrazolo[3,4-b]pyridin-4-one], the IC50 is below 50 nM.
For `O=c1cc(Cc2ccc3ccccc3c2)[nH]c2n[nH]c([C@H]3C[C@H](O)C3)c12` [Example 10, 3-(trans-3-hydroxycyclobutyl)-6-(naphthalen-2-ylmethyl)-2,7-dihydro-4H-pyrazolo[3,4-b]pyridin-4-one], the IC50 was below 50 nM.
For the molecule `O=C1CC(c2[nH]nc3[nH]c(Cc4ccc5ccccc5c4)cc(=O)c23)C1` [Example 12, 6-(naphthalen-2-ylmethyl)-3-(3-oxocyclobutyl)-2,7-dihydro-4H-pyrazolo[3,4-b]pyridin-4-one], the IC50 is below 50 nM.
For the molecule `O=c1cc(Cc2cc(F)cc(Cl)c2)[nH]c2n[nH]c(C3CCC3)c12` [Example 8, 6-(3-chloro-5-fluorobenzyl)-3-cyclobutyl-2,7-dihydro-4H-pyrazolo[3,4-b]pyridin-4-one], the IC50 was below 50 nM.
Still for that read-out and setting: the figure for `O=c1cc(Cc2ccc3ccccc3c2)[nH]c2n[nH]c(C3CCC3)c12` [Example 1, 3-cyclobutyl-6-(2-naphthylmethyl)-2,7-dihydro-4H-pyrazolo[3,4-b]pyridin-4-one] is below 50 nM.

Values taken from patent US20120220624A1, “PYRAZOLO [3,4-B] PYRIDIN-4-ONE KINASE INHIBITORS” (priority 2009, published 2012).
